From US9969749B2, “Inhibitors of IRAK4 activity” (MERCK SHARP & DOHME CORP., priority 2014, dated 2018)

Molecular target: IRAK4 (Homo sapiens (Human), UniProt Q9NWZ3)
Assay: IRAK4 Kinase Assay (IMAP fluorescence polarization)
Assay type: biochemical
Conditions: 0.5 nM GST tagged IRAK4, 100 μM ATP, 100 nM fluorescent peptide substrate RP7030, 30 minutes at 25° C.
Method: The kinase activity of IRAK4 is determined by its ability to catalyze the phosphorylation of a fluorescent polypeptide substrate. The extent of phosphorylation is measured using the IMAP technology (Molecular Devices) where the phosphorylated fluorescent substrate binds to the large M(III)-based nanoparticles which reduces the rotational speed of the substrate and thus increases its fluorescent polarization (FP).
20 μL reaction mixture contains 10 mM TriHCl, pH 7.2, 0.5 nM GST tagged IRAK4 (SignalChem), 100 nM fluorescent peptide substrate (RP7030, Molecular Devices), 100 μM ATP, 1 mM DDT, 1 mM MgCl2, and 0.01% Tween 20. The reaction is initiated by the addition of ATP. After incubation for 30 minutes at 25° C., 60 μL of Progressive IMAP Reagent (Molecular Devices) is added to stop the reaction. Change in RP7030's FP is determined by a FP reader (Analyst HT, LJL BioSystems).

Sequence of IRAK4 (Q9NWZ3 whole entry): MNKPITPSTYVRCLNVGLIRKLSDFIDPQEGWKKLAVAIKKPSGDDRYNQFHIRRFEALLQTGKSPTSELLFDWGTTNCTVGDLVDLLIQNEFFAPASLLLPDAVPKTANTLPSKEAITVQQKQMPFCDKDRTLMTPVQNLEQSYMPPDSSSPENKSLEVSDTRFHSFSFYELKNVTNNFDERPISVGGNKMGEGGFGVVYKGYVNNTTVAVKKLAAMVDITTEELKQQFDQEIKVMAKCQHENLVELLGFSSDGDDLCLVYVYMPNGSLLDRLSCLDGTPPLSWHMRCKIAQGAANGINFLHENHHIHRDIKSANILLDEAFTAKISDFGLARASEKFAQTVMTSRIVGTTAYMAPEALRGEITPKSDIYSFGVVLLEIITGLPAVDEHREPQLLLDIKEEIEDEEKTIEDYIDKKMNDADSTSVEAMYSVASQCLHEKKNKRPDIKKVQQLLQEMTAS

| SMILES | IC50 |
| --- | --- |
| Cc1c(-c2ccncc2)ccc2ncnc(N[C@H]3CC[C@H](N4CCOCC4)CC3)c12 [Example 1-78, 5-methyl-N-(trans-4-morpholin-4-ylcyclohexyl)-6-pyridin-4-ylquinazolin-4-amine] | 0.433 µM |
| CCOC(C)n1cc(-c2ccc3ncnc(N[C@H]4CC[C@H](N(C)C)CC4)c3c2)cn1 (stereo partly drawn) [Example 1-14, trans-N′-{6-[1-(1-ethoxyethyl)-1H-pyrazol-4-yl]quinazolin-4-yl}-N,N-dimethylcyclohexane-1,4-diamine] | 1.36 µM |
| Cc1c(-c2cnn(C)c2)ccc2ncnc(N[C@H]3CC[C@H](N4CCOCC4)CC3)c12 [Example 1-77, 5-methyl-6-(1-methyl-1H-pyrazol-4-yl)-N-(trans-4-morpholin-4-ylcyclohexyl)quinazolin-4-amine] | 1.31 µM |
| Oc1cncc(-c2cc3c(N[C@H]4CC[C@H](N5CCOCC5)CC4)ncnc3cc2F)c1 [Example 1-84, 5-{7-fluoro-4-[(trans-4-morpholin-4-ylcyclohexyl)amino]quinazolin-6-yl}pyridin-3-ol] | 0.001 µM |
| Fc1cc(F)cc(-c2ccc3ncnc(N[C@H]4CC[C@H](N5CCOCC5)CC4)c3c2)c1 [Example 1-68, 6-(3,5-difluorophenyl)-N-(trans-4-morpholin-4-ylcyclohexyl)quinazolin-4-amine] | 0.025 µM |
| Oc1cc(-c2ccc3ncnc(N[C@H]4CC[C@H](N5CCOCC5)CC4)c3c2)cc(F)c1F [Example 1-70, 2,3-difluoro-5-{4-[(trans-4-morpholin-4-ylcyclohexyl)amino]quinazolin-6-yl}phenol] | 0.005 µM |
| CN(C)C1CCC(Nc2ncnc3ccc(-c4cccnc4)cc23)CC1 (single isomer, unassigned) [Example 1-4, cis or trans-N,N-dimethyl-N′-[6-(pyridin-3-yl)quinazolin-4-yl]cyclohexane-1,4-diamine] | 1.61 µM |
| Cc1ncc(-c2ccc3ncnc(N[C@H]4CC[C@H](N5CCOCC5)CC4)c3c2)cn1 [Example 1-89, 6-(2-methylpyrimidin-5-yl)-N-[trans-4-(morpholin-4-yl)cyclohexyl]quinazolin-4-amine] | 0.018 µM |
| Fc1cncc(-c2ccc3ncnc(N[C@H]4CC[C@H](N5CCOCC5)CC4)c3c2)c1 [Example 1-97, 6-(5-fluoropyridin-3-yl)-N-[trans-4-(morpholin-4-yl)cyclohexyl]quinazolin-4-amine] | 0.022 µM |
| Cc1c(-c2cncc(O)c2)ccc2ncnc(N[C@H]3CC[C@H](N4CCOCC4)CC3)c12 [Example 1-79, 5-{5-methyl-4-[(trans-4-morpholin-4-ylcyclohexyl)amino]quinazolin-6-yl}pyridin-3-ol] | 0.038 µM |
| Nc1cc(-c2ccc3ncnc(N[C@H]4CC[C@H](N5CCOCC5)CC4)c3c2)ccn1 [Example 1-74, 6-(2-aminopyridin-4-yl)-N-(trans-4-morpholin-4-ylcyclohexyl)quinazolin-4-amine] | 0.003 µM |
| CS(=O)(=O)Nc1cncc(-c2ccc3ncnc(N[C@H]4CC[C@H](N5CCOCC5)CC4)c3c2)c1 [Example 1-92, N-[5-(4-{[trans-4-(morpholin-4-yl)cyclohexyl]amino}quinazolin-6-yl)pyridin-3-yl]methanesulfonamide] | 0.024 µM |
| Oc1cc(-c2ccc3ncnc(N[C@H]4CC[C@H](N5CCOCC5)CC4)c3c2)ccn1 [Example 1-67, 4-{4-[(trans-4-morpholin-4-ylcyclohexyl)amino]quinazolin-6-yl}pyridin-2-ol] | 0.015 µM |
| Cc1cnccc1-c1ccc2ncnc(N[C@H]3CC[C@H](N(C)C)CC3)c2c1 [Example 1-21, trans-N,N-dimethyl-N′-[6-(3-methylpyridin-4-yl)quinazolin-4-yl]cyclohexane-1,4-diamine] | 0.155 µM |
| c1nc(N[C@H]2CC[C@H](N3CCOCC3)CC2)c2cc(-c3cnoc3)ccc2n1 [Example 1-96, 6-(isoxazol-4-yl)-N-[trans-4-(morpholin-4-yl)cyclohexyl]quinazolin-4-amine] | 0.009 µM |
| CN(C)[C@H]1CC[C@H](Nc2ncnc3ccc(-c4cncc(N5CCOCC5)c4)cc23)CC1 [Example 1-23, trans-N,N-dimethyl-N′-{6-[5-(morpholin-4-yl)pyridin-3-yl]quinazolin-4-yl}cyclohexane-1,4-diamine] | 0.498 µM |
| Nc1cncc(-c2cc3c(N[C@H]4CC[C@H](N5CCOCC5)CC4)ncnc3cc2F)c1 [Example 1-85, 6-(5-aminopyridin-3-yl)-7-fluoro-N-(trans-4-morpholin-4-ylcyclohexyl)quinazolin-4-amine] | 0.01 µM |
| Fc1cc2ncnc(N[C@H]3CC[C@H](N4CCOCC4)CC3)c2cc1-c1cn[nH]c1 [Example 1-80, 7-fluoro-N-(trans-4-morpholin-4-ylcyclohexyl)-6-(1H-pyrazol-4-yl)quinazolin-4-amine] | 0.002 µM |
| CN(C)C1CCC(Nc2ncnc3ccc(-c4ccc(N)nc4)cc23)CC1 (stereo not drawn) [Example 1-11, cis or trans-N′-[6-(6-aminopyridin-3-yl)quinazolin-4-yl]-N,N-dimethylcyclohexane-1,4-diamine] | 0.036 µM |
| Cc1c(-c2cncnc2)ccc2ncnc(N[C@H]3CC[C@H](N4CCOCC4)CC3)c12 [Example 1-76, 5-methyl-N-(trans-4-morpholin-4-ylcyclohexyl)-6-pyrimidin-5-ylquinazolin-4-amine] | 0.223 µM |
| CN(C)[C@H]1CC[C@H](Nc2ncnc3ccc(-c4ccc5[nH]ccc5c4)cc23)CC1 [Example 1-45, trans-N′-[6-(1H-indol-5-yl)quinazolin-4-yl]-N,N-dimethylcyclohexane-1,4-diamine] | 0.081 µM |

Further lines, results first:

| IC50 | SMILES |
| --- | --- |
| < 0.0005 µM | COCCN[C@H]1CC[C@H](Nc2ncnc3ccc(-c4cncc(O)c4)cc23)CC1 [Example 5-4, 5-[4-({trans-4-[(2-methoxyethyl)amino]cyclohexyl}amino)quinazolin-6-yl]pyridin-3-ol] |
| 0.001 µM | Nc1cc(-c2ccc3ncnc(N[C@H]4CC[C@H](N5CCOCC5)CC4)c3c2)cnc1F [Example 2-7, 6-(5-amino-6-fluoropyridin-3-yl)-N-(trans-4-morpholin-4-ylcyclohexyl)quinazolin-4-amine] |
| < 0.0005 µM | Oc1cc(-c2ccc3ncnc(N[C@H]4CC[C@H](N5CCC(F)CC5)CC4)c3c2)cnc1F [Example 5-13, 2-fluoro-5-(4-{[trans-4-(4-fluoropiperidin-1-yl)cyclohexyl]amino}quinazolin-6-yl)pyridin-3-ol] |
| 0.052 µM | N#Cc1cscc1-c1ccc2ncnc(N[C@H]3CC[C@H](N4CCOCC4)CC3)c2c1 [Example 2-18, 4-(4-{[trans-4-(morpholin-4-yl)cyclohexyl]amino}quinazolin-6-yl)thiophene-3-carbonitrile] |
| 0.261 µM | Cn1cc(-c2ccc3ncnc(N[C@H]4CC[C@H](N5CCOCC5)CC4)c3c2)c(CO)n1 [Example 2-12, (1-methyl-4-{4-[(trans-4-morpholin-4-ylcyclohexyl)amino]quinazolin-6-yl}-1H-pyrazol-3-yl)methanol] |
| 0.008 µM | CNc1cncc(-c2ccc3ncnc(N[C@H]4CC[C@H](N5CCC(CN6CCOCC6)CC5)CC4)c3c2)c1 [Example 5-10, 6-[5-(methylamino)pyridin-3-yl]-N-{trans-4-[4-(morpholin-4-ylmethyl)piperidin-1-yl]cyclohexyl}quinazolin-4-amine] |
| 0.159 µM | Cn1ncnc1-c1ccc2ncnc(N[C@H]3CC[C@H](N4CCOCC4)CC3)c2c1 [Example 2-27, 6-(1-methyl-1H-1,2,4-triazol-5-yl)-N-[trans-4-(morpholin-4-yl)cyclohexyl]quinazolin-4-amine] |
| 0.184 µM | Cc1nc[nH]c1-c1ccc2ncnc(N[C@H]3CC[C@H](N4CCOCC4)CC3)c2c1 [Example 2-19, 6-(4-methyl-1H-imidazol-5-yl)-N-[trans-4-(morpholin-4-yl)cyclohexyl]quinazolin-4-amine] |
| 0.032 µM | CN(C)C(=O)c1cccc(-c2ccc3ncnc(N[C@H]4CC[C@H](N5CCOCC5)CC4)c3c2)n1 [Example 4-1, N,N-Dimethyl-6-(4-(((trans)-4-morpholinocyclohexyl)amino)quinazolin-6-yl)picolinamide] |
| 0.001 µM | CNc1cc(-c2ccc3ncnc(N[C@H]4CC[C@H](N5CCO[C@H](C)C5)CC4)c3c2)cnc1F [Example 5-30, 6-[6-fluoro-5-(methylamino)pyridin-3-yl]-N-{trans-4-[(2R)-2-methylmorpholin-4-yl]cyclohexyl}quinazolin-4-amine] |
| 0.004 µM | CS(=O)(=O)N1CCN([C@H]2CC[C@H](Nc3ncnc4ccc(-c5cnc(F)c(N)c5)cc34)CC2)CC1 [Example 5-20, 6-(5-amino-6-fluoropyridin-3-yl)-N-{trans-4-[4-(methylsulfonyl)piperazin-1-yl]cyclohexyl}quinazolin-4-amine] |
| 0.002 µM | Nc1cc(-c2ccc3ncnc(N[C@H]4CC[C@H](N5CCCC(CN6CCOCC6)C5)CC4)c3c2)cnc1F (stereo partly drawn) [Example 5-21, 6-(5-amino-6-fluoropyridin-3-yl)-N-{trans-4-[3-(morpholin-4-ylmethyl)piperidin-1-yl]cyclohexyl}quinazolin-4-amine] |
| 0.001 µM | CS(=O)(=O)N1CCN([C@H]2CC[C@H](Nc3ncnc4ccc(-c5cnc(F)c(O)c5)cc34)CC2)CC1 [Example 5-14, 2-fluoro-5-[4-({trans-4-[4-(methylsulfonyl)piperazin-1-yl]cyclohexyl}amino)quinazolin-6-yl]pyridin-3-ol] |
| 0.048 µM | c1nc(N[C@H]2CC[C@H](N3CCOCC3)CC2)c2cc(-c3cnc4c(c3)NCC4)ccc2n1 [Example 2-16, 6-(2,3-dihydro-1H-pyrrolo[3,2-b]pyridin-6-yl)-N-[trans-4-(morpholin-4-yl)cyclohexyl]quinazolin-4-amine] |
